Assay results reported in US8669072B2, “Oxadiazoline ligands for modulating the expression of exogenous genes via an ecdysone receptor complex” (Intrexon Corporation, priority 2003, dated 2014).

Experiments:
[1] = target: T1, GAL4 DBD-CfEcR(DEF)/VP16AD-MmRXRE (Choristoneura fumiferana, UniProt O77240); assay: 13B3 assay: luciferase reporter gene induction in stable CHO clone 13B3; assay type: cell-based; details: 33/33.3 μM ligand, 48 h, RLU relative to DMSO
T1 construct: The wild-type D, E, and F domains from spruce budworm Choristoneura fumiferana EcR (“CfEcR-DEF”)
Description: CHO cells were transiently transfected with transcription cassettes for GAL4 DBD-CfEcR(DEF) and for VP16AD-MmRXRF controlled by SV40e promoters. Stably transfected cells were selected using Hygromycin. Individually isolated CHO cell clones were transiently transfected with a GAL4 RE-luciferase reporter (pFR-Luc, Stratagene, La Jolla, Calif.). The 13B3 clone was selected using Zeocin.
Cells were trypsinized and diluted to a concentration of 2.5×10^4 cells mL. 100 μL of cell suspension was placed in each well of a 96 well plate and incubated at 37° C. under 5% CO2 for 24 h. Ligand stock solutions were prepared in DMSO and diluted 300 fold for all treatments.
Luciferase reporter gene expression was measured 48 h after cell treatment using Bright-Glo™ Luciferase Assay System from Promega (E2650). Luminescence was detected at room temperature using a Dynex MLX microtiter plate luminometer.
(§1) Each assay was conducted in two separate wells, and the two values were averaged. Fold inductions were calculated by dividing relative light units (“RLU”) in ligand treated cells with RLU in DMSO treated cells. EC50s were calculated from dose response data using a three-parameter logistic model.

Bombyx mori EcR (VBE) = target: T2, Bombyx mori EcR (VBE) (Bombyx mori, UniProt P49881); assay: Z3 assay: β-galactosidase reporter gene induction in HEK-293 clone Z3 (CVBE / 6XEcRE LacZ); assay type: cell-based; details: 33 μM ligand, 48 h, RLU relative to DMSO
T2 construct: expressed in transfected cells; host or cells: Human HEK-293 cells, retrovirally infected, clone Z3
T2 sequence (P49881 86-606 limits assumed): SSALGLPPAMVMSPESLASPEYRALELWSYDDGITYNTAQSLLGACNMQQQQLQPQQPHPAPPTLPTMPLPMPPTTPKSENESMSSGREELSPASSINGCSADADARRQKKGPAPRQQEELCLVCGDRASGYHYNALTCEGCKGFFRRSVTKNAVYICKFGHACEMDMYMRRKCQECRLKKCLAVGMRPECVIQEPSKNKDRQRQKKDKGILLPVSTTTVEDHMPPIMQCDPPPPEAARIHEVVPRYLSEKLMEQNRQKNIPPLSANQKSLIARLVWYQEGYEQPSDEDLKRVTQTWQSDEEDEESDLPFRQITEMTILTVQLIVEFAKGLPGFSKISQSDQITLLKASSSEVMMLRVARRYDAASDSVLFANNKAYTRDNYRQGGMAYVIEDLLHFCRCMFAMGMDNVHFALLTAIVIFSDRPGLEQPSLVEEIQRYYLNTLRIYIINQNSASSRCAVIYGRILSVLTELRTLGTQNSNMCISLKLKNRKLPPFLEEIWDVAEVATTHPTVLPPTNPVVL
T2 sequence (P19793 1-462 partner): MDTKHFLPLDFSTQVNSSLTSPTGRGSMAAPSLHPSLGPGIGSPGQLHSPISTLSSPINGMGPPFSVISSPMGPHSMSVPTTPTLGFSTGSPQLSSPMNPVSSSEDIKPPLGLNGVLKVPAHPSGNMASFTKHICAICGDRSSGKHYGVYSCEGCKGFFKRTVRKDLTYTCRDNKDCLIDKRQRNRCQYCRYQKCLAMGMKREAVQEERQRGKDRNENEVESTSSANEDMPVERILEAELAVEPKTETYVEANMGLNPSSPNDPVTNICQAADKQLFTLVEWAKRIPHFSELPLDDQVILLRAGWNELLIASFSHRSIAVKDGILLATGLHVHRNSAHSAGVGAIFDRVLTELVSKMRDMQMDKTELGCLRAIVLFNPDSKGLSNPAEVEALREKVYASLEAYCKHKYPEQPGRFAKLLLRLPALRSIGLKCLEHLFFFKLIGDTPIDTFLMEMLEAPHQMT
Description: A synthetic ATG start codon was placed under the control of cytomegalovirus (CVBE) immediate early promoter and flanked by long terminal repeats (LTR). The reporter construct contained six copies of the ecdysone response element (EcRE) binding site placed upstream of LacZ and flanked on both sides with LTR sequences (6×EcRE).
Dilution cloning was used to isolate individual clones. Clones were selected using 450 ug/mL G418 and 100 ng/mL puromycin. Individual clones were evaluated based on their response in the presence and absence of test ligands.
Z3 cells were seeded into 96-well tissue culture plates at a concentration of 2.5×10^3 cells per well and incubated at 37° C. in 5% CO2 for twenty-four hours. Stock solutions of ligands were prepared in DMSO. […] The final concentration of DMSO was maintained at 0.03% in both controls and treatments.
Reporter gene expression was evaluated 48 hours after treatment of cells, β-galactosidase activity was measured using Gal Screen™ bioluminescent reporter gene assay system from Tropix (GSY1000). Fold induction activities were calculated by dividing relative light units (“RLU”) in ligand treated cells with RLU in DMSO treated cells. Luminescence was detected at room temperature using a Dynex MLX microtiter plate luminometer.
as §1

Compound	Fold Induction Average, 13B3 assay [1]	Fold Induction Average, Z3 assay (Bombyx mori EcR (VBE))	fold induction at 33.3 µM ([1]; read-out: Fold Induction Average, 13B3 assay)	fold induction at 33 µM (Bombyx mori EcR (VBE); HEK293, read-out: Fold Induction Average, Z3 assay)
COc1ccccc1C1=NOC(C)(C)N1NC(=O)C(F)(F)C(F)(F)Cl [RG-120062]	0.2	0.6	–	–
COc1ccc(C2=NOC(C)(C)N2NC(=O)c2cc3ccccc3s2)c(OC)c1 [RG-120129]	0.9	0.4	–	–
COc1ccccc1C1=NOC(C)(C)N1NC(=O)Nc1ccccc1 [RG-120025]	0.9	0.8	–	–
CC1(C)ON=C(c2ccc3c(c2)OCO3)N1NC(=O)c1ccco1 [RG-120149]	1.1	0.7	–	–
CCOC(=O)CCC(=O)NN1C(c2ccc3c(c2)OCO3)=NOC1(C)C [RG-120083]	1.3	0.8	–	–
Cc1cc(C)cc(C2=NOC(C)(C)N2NC(=O)NC(=O)c2ccccc2)c1 [RG-120111]	0.6	0.7	–	–
Cc1cccc(NC(=O)NN2C(c3cc(C)cc(C)c3)=NOC2(C)C)c1 [RG-120056]	0.1	1.0	–	–
COc1ccccc1C1=NOC(C)(C)N1NC(=O)c1ccccc1 [RG-120147]	1.1	1.0	–	–
CC1(C)ON=C(c2ccc3c(c2)OCO3)N1NC(=O)Nc1ccccc1 [RG-120017]	0.8	0.9	–	–
Cc1cc(C)cc(C2=NOC(C)(C)N2NC(=O)c2cccc([N+](=O)[O-])c2)c1 [RG-120091]	0.5	1.5	–	–
CC1(C)ON=C(c2ccc(Cl)cc2)N1NC(=O)COc1ccccc1 [RG-120162]	0.9	0.7	–	–
Cc1cc(C)cc(C2=NOC(C)(C)N2NC(=O)NCc2ccccc2)c1 [RG-120088]	0.9	8.2	–	–
CC1(C)ON=C(c2ccc(Cl)cc2)N1NC(=O)C(F)(F)C(F)(F)Cl [RG-120073]	0.9	0.5	–	–
COc1ccc(C2=NOC(C)(C)N2NC(=O)COc2ccccc2)c(OC)c1 [RG-120079]	0.7	0.6	–	–
CC1(C)ON=C(c2ccc3c(c2)OCO3)N1NC(=O)c1ccccc1 [RG-120156]	1.4	0.7	–	–
CC1(C)ON=C(c2ccc3c(c2)OCO3)N1NC(=O)c1cc2ccccc2s1 [RG-120140]	1.4	0.5	–	–
COc1cccc(C(=O)NN2C(c3cc(C)cc(C)c3)=NOC23CCOCC3)c1C [RG-120086, N-[3-(3,5-dimethyl-phenyl)-1,8-dioxa-2,4-diaza-spiro[4.5]dec-2-en-4-yl]-3-methoxy-2-methyl-benzamide]	–	–	4	112
CCOC(=O)CCC(=O)NN1C(c2ccc(Cl)cc2)=NOC1(C)C [RG-120164]	1.7	0.6	–	–
CC1(C)ON=C(c2cccc(C(F)(F)F)c2)N1NC(=O)c1ccco1 [RG-120070]	0.4	0.7	–	–
CCOC(=O)CCC(=O)NN1C(c2ccccc2OC)=NOC1(C)C [RG-120144]	0.1	0.7	–	–
COc1ccccc1C1=NOC(C)(C)N1NC(=O)COc1ccccc1 [RG-120057]	0.6	0.8	–	–
CC1(C)ON=C(c2ccc(OC(F)(F)F)cc2)N1NC(=O)c1ccco1 [RG-120094]	0.6	0.8	–	–
CC1(C)ON=C(c2ccc(Cl)cc2)N1NC(=O)COCc1ccccc1 [RG-120117]	1.2	0.8	–	–
COc1ccccc1C1=NOC(C)(C)N1NC(=O)COCc1ccccc1 [RG-120018]	0.8	0.7	–	–
